{
  "source": "PubChem BioAssay (NCI)",
  "assay_in_all_cases": "NCI tumour cell line growth inhibition, 48 h",
  "key": {"SNB-78 CNS": {"test_system": "SNB-78 CNS"}, "KM20L2 colon": {"test_system": "KM20L2 colon"}, "LXFL 529 NSCLC": {"test_system": "LXFL 529 NSCLC"}, "SN12K1 renal": {"test_system": "SN12K1 renal"}, "HOP-18 NSCLC": {"test_system": "HOP-18 NSCLC"}, "P388 leukemia": {"test_system": "P388 leukemia"}, "MDA-MB-231 breast": {"test_system": "MDA-MB-231 breast"}, "PC-3 prostate": {"test_system": "PC-3 prostate"}, "BT-549 breast": {"test_system": "BT-549 breast"}},
  "note": "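Cultured in 96-well plates, cells were exposed to test compound for 48 hours across five concentrations. TGI is the concentration that stops growth completely.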",
  "data": [
    {"molecule": "Cc1cc2n([O-])cccc-2[n+](=O)c1", "values": [
      {"measurement": "TGI", "setting": "SNB-78 CNS", "value": "> 100", "unit": "µM"},
      {"measurement": "TGI", "setting": "KM20L2 colon", "value": "> 100", "unit": "µM"},
      {"measurement": "TGI", "setting": "LXFL 529 NSCLC", "value": "> 100", "unit": "µM"}
    ]},
    {"molecule": "Nc1c(N=Nc2ccc(-c3ccc(N=Nc4c(O)ccc5cc(S(=O)(=O)O)cc(S(=O)(=O)O)c45)cc3)cc2)c(S(=O)(=O)O)cc2cc(S(=O)(=O)O)c(N=Nc3ccccc3)c(O)c12", "values": [
      {"measurement": "TGI", "setting": "SN12K1 renal", "value": "> 100", "unit": "µM"},
      {"measurement": "TGI", "setting": "SNB-78 CNS", "value": "> 100", "unit": "µM"},
      {"measurement": "TGI", "setting": "HOP-18 NSCLC", "value": "> 100", "unit": "µM"},
      {"measurement": "TGI", "setting": "P388 leukemia", "value": "> 100", "unit": "µM"}
    ]},
    {"molecule": "C=C[C@@](C)(/C=C/c1ccc(O)cc1)CCC=C(C)C", "values": [
      {"measurement": "TGI", "setting": "MDA-MB-231 breast", "value": 35.8, "unit": "µM"},
      {"measurement": "TGI", "setting": "PC-3 prostate", "value": 30.4, "unit": "µM"}
    ]},
    {"molecule": "COc1cc2cc(C(=O)N3CC(CCl)c4c3cc([N+](C)(C)Cc3ccc([N+](=O)[O-])n3C)c3ccccc43)[nH]c2c(OC)c1OC", "note": "(stereo not given)", "values": [
      {"measurement": "TGI", "setting": "BT-549 breast", "value": 11.5, "unit": "µM"}
    ]}
  ]
}
